Reference: ChEMBL document CHEMBL1147592, “Novel quinazoline-quinoline alkaloids with cytotoxic and DNA topoisomerase II inhibitory activities” (Bioorg Med Chem Lett, 2004)
In brackets after ≈: the same amount, converted by molar mass.

How the values were obtained:
[1] = target: DNA topoisomerase II (Homo sapiens, UniProt P11388+Q02880); experiment: Inhibitory activity against human DNA topoisomerase II; format: protein assay
[2] = test system: P388; experiment: Cytotoxic activity against mouse leukemia P-388 cells; format: functional, cell-based

| SMILES | IC50 [1] [µM] | IC50 [2] [µg/mL] |
| --- | --- | --- |
| O=c1c2ccccc2nc2n1C(O)c1cc3ccccc3nc1-2 (stereo not drawn) | 25 | 5 (≈ 16.6 µM) |
| COC1c2cc3ccccc3nc2-c2nc3ccccc3c(=O)n21 (stereo not drawn) | 25 | 9 (≈ 28.5 µM) |
| O=C(c1cnc2ccccc2c1)c1nc(O)c2ccccc2n1 | 25 | 20 (≈ 66.4 µM) |
| CC(=O)NC1c2cc3ccccc3nc2-c2nc3ccccc3c(=O)n21 (stereo not drawn) | 25 | 33 (≈ 96.4 µM) |
| Oc1nc(-c2cnc3ccccc3c2)nc2ccccc12 | 25 | 40 (≈ 146 µM) |
| CC(C(C)N1CC(=O)NC(=O)C1)N1CC(=O)NC(=O)C1 (stereo not drawn) [ICRF-193] | 13.9 | – |
| O=c1c2ccccc2nc2n1Cc1cc3ccccc3nc1-2 [LUOTONIN A] | 28.5 | 1.8 (≈ 6.31 µM) |
